Measurements as given in patent US20160130278A1 (TAISHO PHARMACEUTICAL CO., LTD, priority 2013, published 2016).

target: T1, human type 1 glycine transporter (GlyT1) (Homo sapiens, UniProt P48067); test: Glycine uptake inhibition experiment ([3H]glycine uptake); assay type: cell-based; details: GlyT1
T1 construct: T98G cells (glioma cells) expressing human type 1 glycine transporter (GlyT1) were used
T1 sequence (P48067 1-706): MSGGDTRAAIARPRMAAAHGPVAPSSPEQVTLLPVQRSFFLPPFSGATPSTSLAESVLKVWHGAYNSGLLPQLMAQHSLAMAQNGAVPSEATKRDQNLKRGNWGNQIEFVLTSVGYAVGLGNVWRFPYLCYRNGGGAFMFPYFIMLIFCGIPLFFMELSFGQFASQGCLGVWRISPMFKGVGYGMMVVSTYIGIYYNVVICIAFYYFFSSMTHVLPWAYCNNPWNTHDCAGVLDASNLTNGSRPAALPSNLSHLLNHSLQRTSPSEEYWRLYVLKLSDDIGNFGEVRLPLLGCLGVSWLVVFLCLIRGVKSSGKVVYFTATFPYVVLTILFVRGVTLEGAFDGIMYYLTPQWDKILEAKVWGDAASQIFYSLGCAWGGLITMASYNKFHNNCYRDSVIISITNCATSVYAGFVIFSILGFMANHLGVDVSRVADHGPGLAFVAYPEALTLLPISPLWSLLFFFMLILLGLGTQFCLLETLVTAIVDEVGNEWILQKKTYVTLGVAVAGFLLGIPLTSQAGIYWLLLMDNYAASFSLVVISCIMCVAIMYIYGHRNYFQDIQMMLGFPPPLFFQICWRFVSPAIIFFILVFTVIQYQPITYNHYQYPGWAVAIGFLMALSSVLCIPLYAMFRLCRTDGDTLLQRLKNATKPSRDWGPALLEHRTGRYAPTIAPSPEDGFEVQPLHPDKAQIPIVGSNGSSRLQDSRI
Procedure, shortened: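 T98G glioma cells expressing human GlyT1 were pretreated 10 min with compound in HEPES buffer pH 7.4 (0.2% BSA), then incubated with compound plus 250 nM final [3H]glycine for 15 min at room temperature. Intracellular radioactivity was counted after NaOH lysis; 10 μM ALX5407 defined non-specific uptake. IC50 came from 10^−9–10^−5 M curves.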

Row | SMILES | IC50 [nM]
1 | CCn1cc(-c2cccc(C(NC(=O)c3ccc(C(F)(F)F)nc3C)C3(O)CCC(F)(F)CC3)c2)cn1 (stereo not drawn) [Compound 140, N-{(4,4-difluoro-1-hydroxycyclohexyl)[3-(1-ethyl-1H-pyrazol-4-yl)phenyl]methyl}-2-methyl-6-(trifluoromethyl)pyridine-3-carboxamide] | 3300
2 | O=C(NC(c1ccccc1)C1(O)CCCC1)c1cccc(C(F)(F)F)c1Cl (stereo not drawn) [Compound 11, 2-chloro-N-[(1-hydroxycyclopentyl)(phenyl)methyl]-3-(trifluoromethyl)benzamide] | 1000
3 | COC(=O)c1cccc(C(NC(=O)c2nccc(C(F)(F)F)c2Cl)C2(O)CCCC2)c1 (stereo not drawn) [Compound 98, methyl 3-[({[3-chloro-4-(trifluoromethyl)pyridin-2-yl]carbonyl}amino)(1-hydroxycyclopentyl)methyl]benzoate] | 590
4 | O=C(NC(c1cccc(Br)c1)C1(O)CCC(F)CC1)c1nccc(C(F)(F)F)c1Cl (stereo not drawn) [Compound 96, N-[(3-bromophenyl)(4-fluoro-1-hydroxycyclohexyl)methyl]-3-chloro-4-(trifluoromethyl)pyridine-2-carboxamide] | 250
5 | O=C(NC(c1cccc(F)c1)C1(O)CCCC1)c1cccc(C(F)(F)F)c1Cl (stereo not drawn) [Compound 65, 2-chloro-N-[(3-fluorophenyl)(1-hydroxycyclopentyl)methyl]-3-(trifluoromethyl)benzamide] | 270
6 | O=C(NC(c1cc(Cl)ccn1)C1(O)CCC(F)(F)CC1)c1ccc(C(F)(F)F)nc1Cl (single isomer, unassigned) [Compound 350, 2-chloro-N-[(4-chloropyridin-2-yl)(4,4-difluoro-1-hydroxycyclohexyl)methyl]-6-(trifluoromethyl)pyridine-3-carboxamide] | 620
7 | [2H]C1([2H])C([2H])([2H])C([2H])([2H])C(O)(C(NC(=O)c2nccc(C(F)(F)F)c2Cl)c2cccc(Cl)c2)C([2H])([2H])C1([2H])[2H] (single isomer, unassigned) [Compound 232, 3-chloro-N-{(3-chlorophenyl)[1-hydroxy(^2H10)cyclohexyl]methyl}-4-(trifluoromethyl)pyridine-2-carboxamide] | 1400
8 | O=C(NC(c1cc(Cl)ccn1)C1(O)CCC(F)(F)CC1)c1cccc(C(F)(F)F)c1Cl (single isomer, unassigned) [Compound 351, 2-chloro-N-[(4-chloropyridin-2-yl)(4,4-difluoro-1-hydroxycyclohexyl)methyl]-3-(trifluoromethyl)benzamide] | 150
9 | O=C(NC(c1cccc(F)c1)C1(O)CCC1)c1nccc(C(F)(F)F)c1Cl (single isomer, unassigned) [Compound 66, 3-chloro-N-[(3-fluorophenyl)(1-hydroxycyclobutyl)methyl]-4-(trifluoromethyl)pyridine-2-carboxamide] | 690
10 | O=C(NC(c1cccc(OC(F)(F)F)c1)C1(O)CCCC1)c1nccc(C(F)(F)F)c1Cl (stereo not drawn) [Compound 84, 3-chloro-N-{(1-hydroxycyclopentyl)[3-(trifluoromethoxy)phenyl]methyl}-4-(trifluoromethyl)pyridine-2-carboxamide] | 2600
11 | O=C(NC(c1ccccc1Cl)[C@]1(O)CC[C@H](F)CC1)c1nccc(C(F)(F)F)c1Cl (single isomer, unassigned) [Compound 198, 3-chloro-N-[(2-chlorophenyl)(trans-4-fluoro-1-hydroxycyclohexyl)methyl]-4-(trifluoromethyl)pyridine-2-carboxamide] | 200
12 | Cc1ccc(C(NC(=O)c2nccc(C(F)(F)F)c2Cl)C2(O)CCCC2)cc1 (stereo not drawn) [Compound 49, 3-chloro-N-[(1-hydroxycyclopentyl)(4-methylphenyl)methyl]-4-(trifluoromethyl)pyridine-2-carboxamide] | 3800
13 | CCn1cc(-c2cccc(C(NC(=O)c3cccc(Cl)c3Cl)C3(O)CCC(F)(F)CC3)c2)cn1 (stereo not drawn) [Compound 119, 2,3-dichloro-N-{(4,4-difluoro-1-hydroxycyclohexyl)[3-(1-ethyl-1H-pyrazol-4-yl)phenyl]methyl}benzamide] | 470
14 | O=C(NC(c1cccc(-c2cccnc2)c1)C1(O)CCCC1)c1nccc(C(F)(F)F)c1Cl (single isomer, unassigned) [Compound 25, 3-chloro-N-{(1-hydroxycylcopentyl)[3-(pyridin-3-yl)phenyl]methyl}-4-(trifluoromethyl)pyridine-2-carboxamide] | 69
15 | O=C(NC(c1cc(Cl)ccc1F)[C@]1(O)CC[C@@H](F)CC1)c1ccnc(C(F)(F)F)c1Cl (single isomer, unassigned) [Compound 376, 3-chloro-N-[(5-chloro-2-fluorophenyl)(cis-4-fluoro-1-hydroxycyclohexyl)methyl]-2-(trifluoromethyl)pyridine-4-carboxamide] | 550
16 | Cn1nc(C(F)(F)F)cc1C(=O)NC(c1cccc(F)c1Cl)[C@]1(O)CC[C@@H](F)CC1 (single isomer, unassigned) [Compound 272, N-[(2-chloro-3-fluorophenyl)(cis-4-fluoro-1-hydroxycyclohexyl)methyl]-1-methyl-3-(trifluoromethyl)-1H-pyrazole-5-carboxamide] | 2500
17 | CCn1cc(-c2cccc(C(NC(=O)c3c(Cl)cc(Cl)cc3Cl)C3(O)CCC(F)(F)CC3)c2)cn1 (stereo not drawn) [Compound 176, 2,4,6-trichloro-N-{(4,4-difluoro-1-hydroxycyclohexyl)[3-(1-ethyl-1H-pyrazol-4-yl)phenyl]methyl}benzamide] | 1000
18 | O=C(NC(c1cc(Cl)cc(Cl)c1)C1(O)CCCC1)c1nccc(C(F)(F)F)c1Cl (stereo not drawn) [Compound 111, 3-chloro-N-[(3,5-dichlorophenyl)(1-hydroxycyclopentyl)methyl]-4-(trifluoromethyl)pyridine-2-carboxamide] | 220
19 | O=C(NC(c1cccc(F)c1Cl)[C@]1(O)CC[C@@H](F)CC1)c1ncc(Cl)cc1C(F)(F)F (single isomer, unassigned) [Compound 316, 5-chloro-N-[(2-chloro-3-fluorophenyl)(cis-4-fluoro-1-hydroxycyclohexyl)methyl]-3-(trifluoromethyl)pyridine-2-carboxamide] | 5800
20 | O=C(NC(c1ncccc1Cl)[C@]1(O)CC[C@@H](F)CC1)c1nccc(C(F)(F)F)c1Cl (single isomer, unassigned) [Compound 303, 3-chloro-N-[(3-chloropyridin-2-yl)(cis-4-fluoro-1-hydroxycyclohexyl)methyl]-4-(trifluoromethyl)pyridine-2-carboxmaide] | 4000
21 | Cc1cccc(C(NC(=O)c2nccc(C(F)(F)F)c2Cl)C2(O)CCCC2)c1 (single isomer, unassigned) [Compound 56, 3-chloro-N-[(1-hydroxycyclopentyl)(3-methylphenyl)methyl]-4-(trifluoromethyl)pyridine-2-carboxamide] | 240
22 | O=C(NC(c1ccccc1F)C1(O)CCCC1)c1nccc(C(F)(F)F)c1Cl (stereo not drawn) [Compound 41, 3-chloro-N-[(2-fluorophenyl)(1-hydroxycyclopentyl)methyl]-4-(trifluoromethyl)pyridine-2-carboxamide] | 180
23 | CCn1cc(-c2cccc(C(NC(=O)c3cccc(C(F)(F)F)c3Cl)C3(O)CCCC3)c2)cn1 (stereo not drawn) [Compound 1, 2-chloro-N-{[3-(1-ethyl-1H-pyrazol-4-yl)phenyl](1-hydroxycyclopentyl)methyl}-3-(trifluoromethyl)benzamide] | 110
24 | O=C(NC(c1cncc(Cl)c1)[C@]1(O)CC[C@@H](F)CC1)c1nccc(C(F)(F)F)c1Cl (single isomer, unassigned) [Compound 242, 3-chloro-N-[(5-chloropyridin-3-yl)(cis-4-fluoro-1-hydroxycyclohexyl)methyl]-4-(trifluoromethyl)pyridine-2-carboxamide] | 240
25 | O=C(NC(c1cccc(Br)c1)C1(O)CCCCC1)c1nccc(C(F)(F)F)c1Cl (stereo not drawn) [Compound 38, N-[(3-bromophenyl)(1-hydroxycyclohexyl)methyl]-3-chloro-4-(trifluoromethyl)pyridine-2-carboxamide] | 60
26 | O=C(NC(c1cccc(F)c1)C1(O)CCC(F)CC1)c1nccc(C(F)(F)F)c1Cl (single isomer, unassigned) [Compound 236, 3-chloro-N-[(cis-4-fluoro-1-hydroxycyclohexyl)(3-fluorophenyl)methyl]-4-(trifluoromethyl)pyridine-2-carboxamide] | 100

same assay, conditions: human GlyT1

Row | SMILES | IC50 [nM]
27 | O=C(NC(c1ccccc1Cl)C1(O)CCC(F)(F)CC1)c1ccc(C(F)(F)F)nc1-n1nccn1 (single isomer, unassigned) [Compound 408, N-[(2-chlorophenyl)(4,4-difluoro-1-hydroxycyclohexyl)methyl]-2-(2H-1,2,3-triazol-2-yl)-6-(trifluoromethyl)pyridine-3-carboxamide] | 2200
